Biological target: T1, A. pernix ADH (Aeropyrum pernix, UniProt Q9Y9P9)
T1 construct: heat treatment, DEAE Sepharose and Superdex 200
T1 sequence (Q9Y9P9 1-344): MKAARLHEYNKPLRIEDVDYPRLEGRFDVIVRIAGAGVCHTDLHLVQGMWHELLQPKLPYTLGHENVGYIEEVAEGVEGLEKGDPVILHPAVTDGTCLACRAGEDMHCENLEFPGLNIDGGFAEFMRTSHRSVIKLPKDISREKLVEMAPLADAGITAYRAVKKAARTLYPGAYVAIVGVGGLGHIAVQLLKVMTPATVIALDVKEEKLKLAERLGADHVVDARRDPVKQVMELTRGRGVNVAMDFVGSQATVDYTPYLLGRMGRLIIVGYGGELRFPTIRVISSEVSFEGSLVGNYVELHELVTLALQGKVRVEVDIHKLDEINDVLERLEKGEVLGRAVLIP
Assay: NADH formation, initial rate
Assay type: biochemical
Details: 70 μM NAD+, 25 °C

SMILES | NADH formation, initial rate (CTAB/2-pentanol/isooctane reversed micelles, W0 16.7, 2-pentanol as co-substrate) | NADH formation, initial rate (aqueous, 50 mM potassium phosphate pH 7.4, 150 mM KCl, 1.2 μM enzyme, substrate activation)
NC(=O)c1ccc[n+]([C@@H]2O[C@H](COP(=O)(O)OP(=O)(O)OC[C@H]3O[C@@H](n4cnc5c(N)ncnc54)[C@H](O)[C@@H]3O)[C@@H](O)[C@H]2O)c1 [NAD^+] | A. pernix ADH showed NAD^+ reduction activity in a CTAB/2-pentanol/isooctane reversed micellar system | 
CCCC(C)O (centres unmarked) [2-pentanol] |  | substrate activation was also observed when using 2-pentanol as a substrate in water
